The values below come from patent US8389545B2, “Quinolone M1 receptor positive allosteric modulators” (Merck, Sharp & Dohme, Corp., priority 2005, dated 2013).

Each structure is given as a SMILES string.

The target of the test is T1, acetylcholine muscarinic M1 receptor (Homo sapiens, UniProt P11229).
T1 construct: expressed in transfected cells; host or cells: CHOnfat cells (CHO; Geneticin selection)
T1 sequence (P11229 1-460): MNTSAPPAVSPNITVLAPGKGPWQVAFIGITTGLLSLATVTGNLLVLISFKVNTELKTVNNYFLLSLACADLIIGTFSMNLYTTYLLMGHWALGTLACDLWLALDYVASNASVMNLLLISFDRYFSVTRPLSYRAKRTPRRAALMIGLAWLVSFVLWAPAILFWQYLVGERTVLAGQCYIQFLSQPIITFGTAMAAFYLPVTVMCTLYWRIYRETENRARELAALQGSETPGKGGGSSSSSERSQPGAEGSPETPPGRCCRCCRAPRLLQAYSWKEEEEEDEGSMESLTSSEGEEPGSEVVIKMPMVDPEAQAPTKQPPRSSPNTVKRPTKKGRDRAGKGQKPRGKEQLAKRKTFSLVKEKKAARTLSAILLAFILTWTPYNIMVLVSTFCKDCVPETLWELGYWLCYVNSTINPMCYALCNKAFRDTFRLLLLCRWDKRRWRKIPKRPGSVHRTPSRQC
As to the kind of experiment: muscarinic FLIPR assay: intracellular calcium in CHOnfat/hM1 cells with EC20 acetylcholine. Conditions: FLIPR Ca2+, 4 min preincubation then EC20 acetylcholine (3 nM final). It counts as cell-based. Here is the method: The assay studies the effect of one or several concentrations of test compounds on basal or acetylcholine-stimulated Ca^2+ levels using FLIPR.
Compounds are prepared and subjected to a preincubation period of 4 min. Thereafter, a single EC20 concentration of acetylcholine is added to each well (3 nM final). The intracellular Ca^2+ level of each sample is measured and compared to an acetylcholine control to determine any modulatory activity.
Cells: CHOnfat/hM1, hM2, hM3 or hM4 cells are plated 24 hr before the assay at a density of 18,000 cells/well (100 μL) in a 384 well plate. CHOnfat/hM1 and CHOnfat/hM3 Growth Medium: 90% DMEM (Hi Glucose); 10% HI FBS; 2 mM L-glutamine; 0.1 mM NEAA; Pen-Strep; and 1 mg/ml Geneticin, are added. For M2Gqi5CHOnfat and M4Gqi5CHOnfat cells, an additional 600 ug/ml hygromycin is added.
Equipment: 384 well plate, 120 μL addition plate; 96-well Whatman 2 ml Uniplate Incubator, 37° C., 5% CO2; Skatron EMBLA-384 Plate Washer; Multimek Pipetting System; Genesis Freedom 200 System; Mosquito System; Temo Nanolitre Pipetting System; and FLIPR^384 Fluorometric Imaging Plate Reader System are used.
Buffers. Assay Buffer: Hanks Balanced Salt Solution, with 20 mM Hepes, 2.5 mM Probenecid (Sigma P-8761) first dissolved in 1N NaOH, 1% Bovine Serum Albumin (Sigma A-9647). Dye Loading Buffer: Assay Buffer plus 1% Fetal Bovine Serum and Fluo-4AM/Pluronic Acid Mixture. 2 mM Fluo-4AM ester stock in DMSO (Molecular Probes F-14202) Concentration of 2 uM in buffer for a final concentration of 1 μM in Assay. 20% Pluronic Acid Solution stock, with concentration of 0.04% in Buffer, 0.02% in Assay.
65 μL of 2 mM Fluo-4AM are mixed with 130 μL of 20% Pluronic Acid. The resulting solution and 650 μL FBS is added to the assay buffer for a total volume of 65 mL. Positive Controls: 4-Br-A23187: 10 mM in DMSO; final concentration 10 μM. Acetylcholine: 10 mM in water, working stock at both 20 uM and 30 uM in assay buffer, final concentration of 10 μM. This is used to check the maximum stimulation of the CHOK1/hM1 cells. 20 uM (2×) acetylcholine is added in the preincubation part of the assay, and the 30 uM (3×) stock is added in the second part. (EC20) Acetylcholine: 10 mM in water, working stock of 9 nM (3×), and final concentration in assay is 3 nM. This is used after the preincubation with test compounds. Addition of the EC20 Acetylcholine to each well with a test compound will ascertain any modulator activity. 24 wells contain 3 nM Acetylcholine alone as a control.
Determining Activity of Putative Compounds: Screening Plate: Compounds are titrated in 96-well plates (columns 2-11), 100% DMSO, started at a concentration of 15 mM (150× stock concentration), and 3-fold serial dilutions using Genesis Freedom200 System. Four 96-well plates are combined into a 384-well plate using Mosquito Nanolitre Pipetting System by transferring 1 ul of serial diluted compounds to each well, and 1 mM acetylcholine (100× stock concentration) were added as a control. Using Temo, 49 μl assay buffer is added to each well of the 384-well plate right before assay.
In a 96-well Whatman 2 ml Uniplate, 9 nM Acetylcholine (3×) is pipetted into wells corresponding to the screening compounds, and into control wells. The 30 uM acetylcholine control (3×) is added into control wells, and the 3× agonist plate is transferred into a 384 well plate. Cells are washed three times with 100 μL of buffer, leaving […] of buffer in each well. Using Multimek, 30 μL of Dye Loading Buffer is added into each well and incubated at 37° C., 5% CO2 for up to one hr.
After 60 min, the cells are washed three times with 100 μL of buffer, leaving 30 μL of buffer in each well. The cell plate, screening plate, and agonist addition plates are placed on the platform in the FLIPR and the door closed. A signal test to check background fluorescence and basal fluorescence signal is performed. Laser intensity is adjusted if necessary. […]
A general note: A change in cytosolic calcium serves as a functional read-out for many receptors and channels.
For the compound `O=C(O)c1cn(Cc2ccc(C(F)(F)F)cc2)c2c(F)cccc2c1=O` [Example 52, 8-fluoro-4-oxo-1-[4-(trifluoromethyl)benzyl]-1,4-dihydroquinoline-3-carboxylic acid], the EC50 (in general, the midpoint of the concentration-response curve) was 975 nM.

On to `COc1ccc(Cn2cc(C(=O)O)c(=O)c3cccc(F)c32)cc1C(F)(F)F` [Example 44, 8-fluoro-1-[4-methoxy-3-(trifluoromethyl)benzyl]-4-oxo-1,4-dihydroquinoline-3-carboxylic acid], for which the EC50 was 793 nM.

Regarding `COc1cccc(Cn2cc(C(=O)O)c(=O)c3c(F)ccc(F)c32)c1` [Example 2, 5,8-difluoro-1-(3-methoxybenzyl)-4-oxo-1,4-dihydroquinoline-3-carboxylic acid], the EC50 is 4200 nM.

Turning to `O=C(O)c1cn(Cc2ccc(O)cc2)c2ccccc2c1=O` [Example 71, 1-(4-hydroxybenzyl)-4-oxo-1,4-dihydroquinoline-3-carboxylic acid], the EC50 came to 389 nM.

For the compound `O=C(O)c1cn(Cc2c(F)cccc2F)c2c(F)ccc(F)c2c1=O` [Example 4, 1-(2,6-difluorobenzyl)-5,8-difluoro-4-oxo-1,4-dihydroquinoline-3-carboxylic acid], the concentration for a half-maximal effect (EC50) worked out at 614 nM.

In the case of `COc1ccc(Cn2cc(C(=O)O)c(=O)c3cccc(F)c32)cc1` [Example 5, 8-fluoro-1-(4-methoxybenzyl)-4-oxo-1,4-dihydroquinoline-3-carboxylic acid], the EC50 worked out at 1150 nM.
